The subject of one assay is NFκB. As to the kind of experiment: NFκB agonist assay in A549 SPAP cells.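 As to average maximum asymptote in the NFkB assay: maximum inhibition of the TNFα-induced NFκB-driven signal.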 Format: cell-based. Particulars: Homo sapiens. The essentials: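 A549 cells stably carrying an ELAM/NFκB-driven SPAP reporter were pre-incubated 1 h at 37° C with compound, then stimulated with TNFα (3.2 ng/ml final) for 15 h. SPAP activity read colorimetrically with pNPP at 405 nm after ~1 h; pIC50 estimated from dose-response curves.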

The target of the next assay is T1, progesterone receptor (Homo sapiens, UniProt P06401).
T1 construct: expressed in transfected cells; host or cells: CV-1 cells transduced with PRb-BacMam and MMTV-BacMam
T1 sequence (P06401 1-933): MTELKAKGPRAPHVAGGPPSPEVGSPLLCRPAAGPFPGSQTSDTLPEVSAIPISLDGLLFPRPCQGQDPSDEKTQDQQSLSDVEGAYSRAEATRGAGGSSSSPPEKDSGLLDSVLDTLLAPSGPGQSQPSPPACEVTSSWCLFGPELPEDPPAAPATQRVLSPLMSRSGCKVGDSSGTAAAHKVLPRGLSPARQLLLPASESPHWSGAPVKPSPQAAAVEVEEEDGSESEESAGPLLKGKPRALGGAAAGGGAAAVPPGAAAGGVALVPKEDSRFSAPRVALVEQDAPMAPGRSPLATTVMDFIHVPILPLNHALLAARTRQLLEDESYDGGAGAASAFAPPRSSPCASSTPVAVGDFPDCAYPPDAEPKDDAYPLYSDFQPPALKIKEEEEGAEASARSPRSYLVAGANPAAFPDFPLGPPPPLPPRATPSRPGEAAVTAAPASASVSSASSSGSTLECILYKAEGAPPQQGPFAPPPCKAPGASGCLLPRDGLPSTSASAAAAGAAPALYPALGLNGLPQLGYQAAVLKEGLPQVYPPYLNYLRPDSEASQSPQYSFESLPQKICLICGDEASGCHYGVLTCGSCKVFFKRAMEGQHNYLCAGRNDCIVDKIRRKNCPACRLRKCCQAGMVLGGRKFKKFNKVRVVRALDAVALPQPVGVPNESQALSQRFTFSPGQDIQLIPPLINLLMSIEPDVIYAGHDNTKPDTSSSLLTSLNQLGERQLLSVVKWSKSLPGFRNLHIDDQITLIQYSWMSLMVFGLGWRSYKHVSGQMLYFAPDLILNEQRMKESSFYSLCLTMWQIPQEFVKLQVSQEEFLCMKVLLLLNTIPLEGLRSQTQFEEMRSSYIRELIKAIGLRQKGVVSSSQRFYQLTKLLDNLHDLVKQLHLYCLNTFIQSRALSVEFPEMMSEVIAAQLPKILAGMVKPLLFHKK
As to the kind of experiment: Assay for progesterone receptor activity (CV-1 cells, PRb-BacMam/MMTV-BacMam). It counts as cell-based. Particulars: CV-1 cells transduced with PRb-BacMam and MMTV-BacMam; read-out: pEC50 progesterone receptor activity (converted). An outline of the steps:
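CV-1 cells co-transduced with PRb-BacMam and MMTV-BacMam (10% each), seeded onto compounds in DMEM with 10% serum. After 24 h, luminescence was read with Steadylite. pEC50 values were estimated from dose-response curves.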

For `Nc1c(C(=O)NCC(O)(CNC(=O)c2c(F)cccc2OC(F)F)C(F)(F)F)cnn1-c1ccc(F)cc1` (single isomer, unassigned) [Example 48 Enantiomer 1, 5-Amino-N-(2-{[({2-[(difluoromethyl)oxy]-6-fluorophenyl}carbonyl)amino]methyl}-3,3,3-trifluoro-2-hydroxypropyl)-1-(4-fluorophenyl)-1H-pyrazole-4-carboxamide], the Emax in the assay on NFκB (A549, A549 SPAP cells, >85% = full agonist, ≧20% = partial or full agonist, read-out: average maximum asymptote in the NFkB assay) is no less than 20%. Besides, the IC50 with NFκB (A549 SPAP cells, TNFα 3.2 ng/ml, read-out: pIC50 for the NFkB assay (converted)) was less than 1000 nM. The EC50 on progesterone receptor is greater than 1000 nM.

These data come from patent publication US8247377B2, “Non-steroidal glucocorticoid inhibitors and their use in treating inflammation, allergy and auto-immune conditions” (Glaxo Group Limited, priority 2006, dated 2012).
